One assay has as its target T1, CCK-1 receptor (Homo sapiens, UniProt P32238).
T1 construct: expressed in transfected cells; host or cells: CHO-K1
T1 sequence (P32238 1-428): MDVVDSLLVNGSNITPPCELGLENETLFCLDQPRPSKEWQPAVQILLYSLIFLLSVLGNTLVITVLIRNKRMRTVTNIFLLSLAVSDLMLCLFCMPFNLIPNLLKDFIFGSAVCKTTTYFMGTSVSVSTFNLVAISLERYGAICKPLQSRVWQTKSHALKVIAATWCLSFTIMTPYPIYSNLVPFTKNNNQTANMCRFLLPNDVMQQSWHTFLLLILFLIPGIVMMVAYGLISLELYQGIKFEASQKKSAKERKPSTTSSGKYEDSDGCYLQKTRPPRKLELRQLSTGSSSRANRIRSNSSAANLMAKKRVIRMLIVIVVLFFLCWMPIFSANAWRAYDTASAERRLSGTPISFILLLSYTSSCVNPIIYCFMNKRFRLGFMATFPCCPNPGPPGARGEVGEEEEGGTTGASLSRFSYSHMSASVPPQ
In words: CCK1 binding assay ([125I]-BH-CCK-8S displacement, CHO-K1 membranes). Conditions: membranes of CHO-K1 cells stably transfected with the CCK-1 receptor, 20 pM [125I]-BH-CCK-8S, 0.3 μM PD-134,308 present, 60 min at 21±3° C.; for Ki: read-out: CCK1 pKi (converted). The method, boiled down:
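Membranes from CHO-K1 cells stably expressing CCK-1 incubated 1 h at 21±3° C with 20 pM [125I]-BH-CCK-8S in HEPES buffer pH 7.2 containing 0.3 μM PD-134,308 to block CCK-2. Bound radioactivity read by gamma counting after filtration. pKi derived via Cheng-Prusoff, with specific binding defined using 2-NAP.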

A further assay deals with T2, CCK2 receptor (Homo sapiens, UniProt P32239).
T2 construct: analyzed for ZFP expression as well as CCK2R induction upon addition of doxycycline to the culture medium; endogenous in cells
T2 sequence (P32239 1-447): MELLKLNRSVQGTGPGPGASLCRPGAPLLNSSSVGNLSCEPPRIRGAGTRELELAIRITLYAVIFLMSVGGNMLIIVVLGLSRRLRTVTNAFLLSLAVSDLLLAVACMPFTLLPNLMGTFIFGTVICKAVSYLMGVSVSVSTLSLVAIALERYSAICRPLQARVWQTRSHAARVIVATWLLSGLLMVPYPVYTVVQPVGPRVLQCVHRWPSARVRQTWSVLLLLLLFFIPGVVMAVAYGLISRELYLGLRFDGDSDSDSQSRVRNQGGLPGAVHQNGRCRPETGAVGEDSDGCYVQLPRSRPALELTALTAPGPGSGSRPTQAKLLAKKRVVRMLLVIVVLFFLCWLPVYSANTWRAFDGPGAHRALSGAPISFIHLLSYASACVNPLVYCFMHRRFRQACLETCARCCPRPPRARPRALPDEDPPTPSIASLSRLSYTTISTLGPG
In words: CCK2 binding assay ([125I]-BH-CCK-8S displacement, HEKZFP membranes). Conditions: membranes of doxycycline-induced HEKZFP cells, 20 pM [125I]-BH-CCK-8S, 60 min at 21±3° C.; for Ki: read-out: CCK2 pKi (converted).

For `O=C(N[C@H](C(=O)O)C(c1ccc(Cl)cc1)c1ccc(Cl)cc1)c1ccc(I)cc1NS(=O)(=O)c1cccc2nsnc12` [Example 94, (S)-2-[2-(Benzo[1,2,5]thiadiazole-4-sulfonylamino)-4-iodo-benzoylamino]-3,3-bis-(4-chloro-phenyl)-propionic acid], the Ki on CCK-1 receptor is 6310 nM; on CCK2 receptor, 1000 nM.
Taken in the same sequence, the figures for `CC(C)(c1ccc(Cl)cc1)[C@H](NC(=O)c1ccc(I)cc1NS(=O)(=O)c1cccc2nsnc12)C(=O)O` [Example 95, (S)-2-[2-(Benzo[1,2,5]thiadiazole-4-sulfonylamino)-4-iodo-benzoylamino]-3-(4-chloro-phenyl)-3-methyl-butyric acid] were 3160 nM and 794 nM.
Taken in the same sequence, the figures for `C[C@@H](NC(=O)c1ccc(I)cc1NS(=O)(=O)c1cccc2nsnc12)[C@@H](O)c1ccc(Cl)cc1` [Example 99, 2-(Benzo[1,2,5]thiadiazole-4-sulfonylamino)-N-[(2S,1R)-2-(4-chloro-phenyl)-2-hydroxy-1-methyl-ethyl]-4-iodo-benzamide] were 79.4 nM and 794 nM.
On to `C[C@@H](NC(=O)c1ccc(I)cc1NS(=O)(=O)c1cccc2nsnc12)[C@@H](O)c1cccc(Br)c1` [Example 101, 2-(Benzo[1,2,5]thiadiazole-4-sulfonylamino)-N-[(2S,1R)-2-(3-bromo-phenyl)-2-hydroxy-1-methyl-ethyl]-4-iodo-benzamide], for which the figures for the Ki at CCK-1 receptor and at CCK2 receptor were 39.8 nM and 794 nM, respectively.
As for `CC(C)(c1ccc(Cl)cc1)[C@H](NC(=O)c1ccc(Cl)cc1NS(=O)(=O)c1cccc2nsnc12)C(=O)O` [Example 107, (S)-2-[2-(Benzo[1,2,5]thiadiazole-4-sulfonylamino)-4-chloro-benzoylamino]-3-(4-chloro-phenyl)-3-methyl-butyric acid], the “CCK1 pKi” value at CCK-1 receptor came out at 5.4. Besides, on CCK2 receptor, the Ki is 794 nM.
As to `C[C@@H](NC(=O)c1ccc(Cl)cc1NS(=O)(=O)c1cccc2nsnc12)[C@@H](O)c1cccc(Br)c1` [Example 108, 2-(Benzo[1,2,5]thiadiazole-4-sulfonylamino)-N-[(2S,1R)-2-(3-bromo-phenyl)-2-hydroxy-1-methyl-ethyl]-4-chloro-benzamide], at CCK-1 receptor, the “CCK1 pKi” value amounted to 7.6. In addition, the “CCK2 pKi” value at CCK2 receptor worked out at 5.9.
Regarding `O=C(N[C@H](Cc1cccc(Br)c1)C(=O)O)c1ccc(I)cc1NS(=O)(=O)c1cccc2nsnc12` [Example 115, (R)-2-[2-(Benzo[1,2,5]thiadiazole-4-sulfonylamino)-4-iodo-benzoylamino]-3-(3-bromo-phenyl)-propionic acid], the values for the Ki on CCK-1 receptor and at CCK2 receptor were 398 nM and 79.4 nM, respectively.
Consider `COC(=O)[C@@H](NC(=O)c1ccc(I)cc1NS(=O)(=O)c1c(F)cccc1F)[C@H](C)c1ccc(Cl)c(Cl)c1` [Example 116, (2S,3R)-3-(3,4-Dichloro-phenyl)-2-[2-(2,6-difluoro-benzenesulfonylamino)-4-iodo-benzoylamino]-butyric acid methyl ester], for which the figures for the Ki at CCK-1 receptor and at CCK2 receptor were 126 nM and 2000 nM, respectively.
For `O=C(N[C@@H](Cc1ccc(Cl)c(Cl)c1)C(=O)O)c1ccc(Cl)cc1NS(=O)(=O)c1c(F)cccc1F` [Example 119, (S)-2-[4-Chloro-2-(2,6-difluoro-benzenesulfonylamino)-benzoylamino]-3-(3,4-dichloro-phenyl)-propionic acid], the Ki at CCK-1 receptor is 501 nM; on CCK2 receptor, 200 nM.
Regarding `O=C(N[C@H](Cc1ccc(Cl)c(Cl)c1)C(=O)O)c1ccc(Cl)cc1NS(=O)(=O)c1c(F)cccc1F` [Example 120, (R)-2-[4-Chloro-2-(2,6-difluoro-benzenesulfonylamino)-benzoylamino]-3-(3,4-dichloro-phenyl)-propionic acid], the Ki at CCK-1 receptor is 79.4 nM; at CCK2 receptor, 1000 nM.

(Values after US7855292B2, “Sulfonamide compounds” (Janssen Pharmaceutica NV, priority 2004, dated 2010).)
